Source: ChEMBL document CHEMBL1130240, “Synthesis and structure-activity profiles of A-homoestranes, the estratropones” (J Med Chem, 1997)

Legend:
[1] = biological target: T1, Tubulin beta chain (Bos taurus, UniProt Q6B856); experiment: (§1) Inhibition of tubulin polymerization
[2] = biological target: Tubulin (Bos taurus) (UniProt Q6B856+Q862L2+Q862F3); experiment: Inhibition of tubulin polymerization by colchicine to that of compound (IC50colchicine/IC50 drug); assay type: functional
[3] = biological target: T1, Tubulin beta chain; experiment: as §1; assay type: functional

T1 sequence (Q6B856 whole entry): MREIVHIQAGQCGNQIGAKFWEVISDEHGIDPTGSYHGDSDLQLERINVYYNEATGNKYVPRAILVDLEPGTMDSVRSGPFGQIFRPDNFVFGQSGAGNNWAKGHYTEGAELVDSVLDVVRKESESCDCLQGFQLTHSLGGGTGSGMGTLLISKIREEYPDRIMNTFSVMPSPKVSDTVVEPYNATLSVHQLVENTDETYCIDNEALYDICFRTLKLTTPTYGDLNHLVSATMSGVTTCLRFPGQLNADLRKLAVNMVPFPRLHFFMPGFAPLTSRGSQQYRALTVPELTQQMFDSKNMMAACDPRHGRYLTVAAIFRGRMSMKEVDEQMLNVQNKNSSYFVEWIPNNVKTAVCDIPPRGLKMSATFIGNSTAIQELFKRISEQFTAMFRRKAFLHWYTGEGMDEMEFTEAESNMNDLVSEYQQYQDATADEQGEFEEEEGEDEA

SMILES | IC50 [1] | Activity [2] | IC50 [3]
COc1cc2c(ccc1=O)CC[C@@H]1[C@@H]2CC[C@]2(C)[C@@H](O)CC[C@@H]12 | 29.8 µM |  | 
C[C@]12CC[C@@H]3c4ccc(Br)c(=O)cc4CC[C@H]3[C@@H]1CC[C@@H]2O |  | 3.9 | 2.9 µM
COc1ccc2c(cc1=O)[C@H]1CC[C@]3(C)[C@@H](O)CC[C@H]3[C@@H]1CC2 | 27.5 µM |  | 
COc1cc2c(ccc1=O)[C@H]1CC[C@]3(C)[C@@H](O)CC[C@H]3[C@@H]1CC2 | 2.1 µM |  | 
C[C@]12CC[C@@H]3c4ccc(=O)c(Cl)cc4CC[C@H]3[C@@H]1CC[C@@H]2O |  | 1.1 | 9.8 µM
C[C@]12CC[C@@H]3c4cccc(=O)cc4CC[C@H]3[C@@H]1CC[C@@H]2O | 7.2 µM |  | 
COc1ccc2c(cc1=O)CC[C@@H]1[C@@H]2CC[C@]2(C)[C@@H](O)CC[C@@H]12 | 8.1 µM |  | 
COc1cc2c(cc1O)CC[C@@H]1[C@@H]2CC[C@]2(C)[C@@H](O)CC[C@@H]12 [2-METHOXYESTRADIOL] | 14.2 µM |  | 
CCOc1cc2c(ccc1=O)[C@H]1CC[C@]3(C)[C@@H](O)CC[C@H]3[C@@H]1CC2 | 5.9 µM |  | 
C[C@]12CC[C@@H]3c4ccc(=O)ccc4CC[C@H]3[C@@H]1CC[C@@H]2O |  | 2.5 | 4.4 µM
C[C@]12CC[C@@H]3c4ccc(Cl)c(=O)cc4CC[C@H]3[C@@H]1CC[C@@H]2O |  | 4 | 2.8 µM
C[C@]12CC[C@@H]3c4ccc(=O)c(Br)cc4CC[C@H]3[C@@H]1CC[C@@H]2O | 11.2 µM |  | 
